The target in assay [1] is Protein cereblon/Cyclin-dependent kinase 5 (Homo sapiens, UniProt Q00535+Q96SW2). As to the kind of experiment: PROTAC activity at CRBN/CDK5 in HEK293 cells assessed as induction of CDK5 degradation incubated for 24 hrs by Western blotting analysis. The format is cell-based.
Assay [2] has as its target Protein cereblon/Cyclin-dependent kinase 9 (Homo sapiens, UniProt P50750+Q96SW2). As to the kind of experiment: PROTAC activity at CRBN/CDK9 in HEK293 cells assessed as induction of CDK9 degradation incubated for 24 hrs by Western blotting analysis. It counts as cell-based. (A western blot detects proteins with antibodies after separation by electrophoresis.)
Assay [3] has as its target Protein cereblon/Cyclin-dependent kinase 2 (Homo sapiens, UniProt P24941+Q96SW2). As to the kind of experiment: PROTAC activity at CRBN/CDK2 in HEK293 cells assessed as induction of CDK2 degradation incubated for 24 hrs by Western blotting analysis. The format is cell-based.
The target of assay [4] is Cyclin-dependent kinase 5 (Homo sapiens, UniProt Q00535). The experiment in a line: Binding affinity to CDK5 (unknown origin) assessed as dissociation constant.
In assay [5] the target is Cyclin-dependent kinase 9 (Homo sapiens, UniProt P50750). As to the kind of experiment: Binding affinity to CDK9 (unknown origin) assessed as dissociation constant.

SMILES strings stand for the structures.

Chain of Protein cereblon/Cyclin-dependent kinase 5 (Q00535 whole entry): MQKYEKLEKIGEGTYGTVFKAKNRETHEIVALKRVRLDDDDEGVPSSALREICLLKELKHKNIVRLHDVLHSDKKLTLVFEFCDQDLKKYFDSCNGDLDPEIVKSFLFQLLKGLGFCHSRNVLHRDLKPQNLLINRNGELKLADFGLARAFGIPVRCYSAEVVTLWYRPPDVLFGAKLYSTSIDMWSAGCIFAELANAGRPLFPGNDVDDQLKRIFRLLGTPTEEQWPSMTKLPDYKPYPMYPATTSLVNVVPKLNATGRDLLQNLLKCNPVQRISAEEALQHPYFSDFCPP
Chain of Protein cereblon/Cyclin-dependent kinase 5 (Q96SW2 whole entry): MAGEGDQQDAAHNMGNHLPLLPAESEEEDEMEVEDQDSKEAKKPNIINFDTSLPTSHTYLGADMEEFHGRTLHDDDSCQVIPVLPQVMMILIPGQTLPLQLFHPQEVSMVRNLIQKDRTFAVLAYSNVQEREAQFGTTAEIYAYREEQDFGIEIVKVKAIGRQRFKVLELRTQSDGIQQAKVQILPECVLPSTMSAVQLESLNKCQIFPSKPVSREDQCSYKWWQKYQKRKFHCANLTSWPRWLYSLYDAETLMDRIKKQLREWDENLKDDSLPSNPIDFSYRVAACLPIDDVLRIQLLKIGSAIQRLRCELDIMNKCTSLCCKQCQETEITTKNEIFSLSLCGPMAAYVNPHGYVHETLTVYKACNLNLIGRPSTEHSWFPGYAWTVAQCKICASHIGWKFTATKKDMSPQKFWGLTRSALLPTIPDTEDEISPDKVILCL
Chain of Protein cereblon/Cyclin-dependent kinase 9 (P50750 whole entry): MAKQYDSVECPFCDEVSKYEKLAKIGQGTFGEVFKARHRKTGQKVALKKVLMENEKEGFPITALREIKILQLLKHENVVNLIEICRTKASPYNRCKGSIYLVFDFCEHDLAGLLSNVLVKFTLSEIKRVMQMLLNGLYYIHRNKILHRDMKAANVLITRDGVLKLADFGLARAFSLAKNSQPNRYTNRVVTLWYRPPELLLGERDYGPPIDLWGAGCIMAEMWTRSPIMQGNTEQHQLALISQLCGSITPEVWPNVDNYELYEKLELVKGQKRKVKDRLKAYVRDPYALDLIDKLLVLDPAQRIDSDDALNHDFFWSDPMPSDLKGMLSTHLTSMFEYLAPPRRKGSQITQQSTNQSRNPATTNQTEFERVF
Chain of Protein cereblon/Cyclin-dependent kinase 9 (Q96SW2 whole entry): as the sequence (Q96SW2 whole entry) above
Chain of Cyclin-dependent kinase 5 (Q00535 whole entry): as the sequence (Q00535 whole entry) above
Chain of Cyclin-dependent kinase 9 (P50750 whole entry): as the sequence (P50750 whole entry) above

With `O=C(CCCOc1ccc(CC(=O)Nc2cc(C3CCC3)[nH]n2)cc1)NCCCCNc1cccc2c1C(=O)N(C1CCC(=O)NC1=O)C2=O` (configuration not stated), the IC50 – broadly, the concentration at which inhibition is half-maximal – in assay [1] came to 7 nM; in assay [2], 530 nM; in assay [3] it was 155 nM.
As for `O=C1CCC(N2C(=O)c3cccc(OCCCCCOc4ccc(CC(=O)Nc5cc(C6CCC6)n[nH]5)cc4)c3C2=O)C(=O)N1` (configuration not stated), the Kd – broadly, the equilibrium constant for the complex coming apart – in assay [4] turned out to be 230 nM; in assay [5], 1060 nM. The IC50 was 32 nM in assay [1] and 1080 nM in assay [2].

These data come from ChEMBL document CHEMBL5360660, “Cyclin-Dependent Kinase Degradation via E3 Ligase Binding for Potential Disease Modulation in Cancer Treatment” (ACS Med Chem Lett, 2023).
